Results taken from patent US20190292189A1, “LIM KINASE INHIBITORS” (VIRONGY, LLC, priority 2016, published 2019).
Where two headings read alike, the source gives them in different places.

Columns and labels:
P450 3A4 = P450 3A4 (Homo sapiens, UniProt P08684); assay: P450 inhibition at 10 μM; type: in vitro ADME
P450 2D6 = P450 2D6 (Homo sapiens, UniProt P10635); assay: P450 inhibition at 10 μM; type: in vitro ADME
[1] = Microsomal stability, rat liver microsomes; type: in vitro ADME
[2] = system: cofilin phosphorylation in A7r5 cells; assay: In-cell Western assay of cofilin phosphorylation in A7r5 cells; type: cell-based
Method: A7r5 (15,000 cells/well) were plated in a clear-bottomed Packard View black 96-well plate in 100 μl of 10% FBS DMEM:F12 medium and were allowed to attach overnight. The next day, the cells were serum starved in 1% FBS DMEM medium for 2 hr and then treated with the compounds for 1 hr. […] Next day, they were washed twice with PBS-0.1% Tween 20 (PBST) washing solution for 5 min each at room temperature on the orbital shaker, followed by one wash with Licor Blocking Buffer containing 0.05% Tween-20 for 5 min on the shaker at RT. The cells were then incubated with secondary antibody goat anti-rabbit IR800 (1:500 dilution) for 1 hr at RT in the dark (covered the plate with foil) in Licor blocking buffer-containing Tween-20. Following this, cells were washed twice with PBST for 5 min each at room temperature and then once with Licor blocking buffer-containing 0.05% Tween-20. The wells were then incubated with ToPro 3 stain (nucleic acid staining), diluted 1:4000 in Licor blocking buffer or Licor blocking buffer with 0.05% Tween-20 for 30 min at room temperature in the dark. Finally the plates were washed twice with PBS and analyzed using the Odyssey LICOR Infrared Scanner.

ROCK-I = ROCK-I (Homo sapiens, UniProt Q13464); assay: ROCK-I biochemical counter-screen; details: Table 6; read-out: Biochemical Inhibition IC50 (nM) ROCK-I
ROCK-I, sequence (Q13464 whole entry, species assumed): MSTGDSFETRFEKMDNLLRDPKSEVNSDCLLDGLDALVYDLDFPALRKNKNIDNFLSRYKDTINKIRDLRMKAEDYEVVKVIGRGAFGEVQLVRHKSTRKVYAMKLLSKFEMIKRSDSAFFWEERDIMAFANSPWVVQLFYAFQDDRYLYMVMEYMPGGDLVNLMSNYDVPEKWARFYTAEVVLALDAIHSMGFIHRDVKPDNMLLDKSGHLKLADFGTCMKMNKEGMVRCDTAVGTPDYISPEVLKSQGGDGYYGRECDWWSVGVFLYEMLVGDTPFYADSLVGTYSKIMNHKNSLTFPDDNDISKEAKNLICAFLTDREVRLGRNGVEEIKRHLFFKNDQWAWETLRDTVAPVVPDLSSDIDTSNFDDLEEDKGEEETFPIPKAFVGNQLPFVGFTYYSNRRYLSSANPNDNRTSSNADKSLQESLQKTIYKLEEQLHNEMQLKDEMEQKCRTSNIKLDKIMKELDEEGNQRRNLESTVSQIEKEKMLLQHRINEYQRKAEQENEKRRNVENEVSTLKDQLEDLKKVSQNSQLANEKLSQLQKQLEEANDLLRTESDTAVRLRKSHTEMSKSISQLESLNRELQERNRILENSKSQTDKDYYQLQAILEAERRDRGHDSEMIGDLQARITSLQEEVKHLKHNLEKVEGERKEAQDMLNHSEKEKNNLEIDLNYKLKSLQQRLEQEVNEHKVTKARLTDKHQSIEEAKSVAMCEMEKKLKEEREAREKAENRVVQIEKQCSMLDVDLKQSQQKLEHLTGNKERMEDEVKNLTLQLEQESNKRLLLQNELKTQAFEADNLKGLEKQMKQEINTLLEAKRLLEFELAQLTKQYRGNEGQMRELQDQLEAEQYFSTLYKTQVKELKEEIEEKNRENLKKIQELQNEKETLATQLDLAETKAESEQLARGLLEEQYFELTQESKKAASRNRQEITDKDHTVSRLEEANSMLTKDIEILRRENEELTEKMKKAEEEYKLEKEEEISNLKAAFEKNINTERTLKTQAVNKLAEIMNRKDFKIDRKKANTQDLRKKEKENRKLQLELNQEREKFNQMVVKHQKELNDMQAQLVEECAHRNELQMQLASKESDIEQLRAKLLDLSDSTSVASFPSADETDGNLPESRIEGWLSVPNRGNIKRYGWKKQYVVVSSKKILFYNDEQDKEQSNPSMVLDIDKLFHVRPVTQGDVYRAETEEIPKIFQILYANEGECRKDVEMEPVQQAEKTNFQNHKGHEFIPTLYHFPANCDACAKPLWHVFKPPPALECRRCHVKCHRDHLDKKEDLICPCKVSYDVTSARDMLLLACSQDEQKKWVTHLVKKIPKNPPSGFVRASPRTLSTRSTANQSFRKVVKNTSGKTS

ROCK-II = ROCK-II (Homo sapiens, UniProt O75116); assay: ROCK-II biochemical counter-screen
ROCK-II, sequence (O75116 whole entry, species assumed): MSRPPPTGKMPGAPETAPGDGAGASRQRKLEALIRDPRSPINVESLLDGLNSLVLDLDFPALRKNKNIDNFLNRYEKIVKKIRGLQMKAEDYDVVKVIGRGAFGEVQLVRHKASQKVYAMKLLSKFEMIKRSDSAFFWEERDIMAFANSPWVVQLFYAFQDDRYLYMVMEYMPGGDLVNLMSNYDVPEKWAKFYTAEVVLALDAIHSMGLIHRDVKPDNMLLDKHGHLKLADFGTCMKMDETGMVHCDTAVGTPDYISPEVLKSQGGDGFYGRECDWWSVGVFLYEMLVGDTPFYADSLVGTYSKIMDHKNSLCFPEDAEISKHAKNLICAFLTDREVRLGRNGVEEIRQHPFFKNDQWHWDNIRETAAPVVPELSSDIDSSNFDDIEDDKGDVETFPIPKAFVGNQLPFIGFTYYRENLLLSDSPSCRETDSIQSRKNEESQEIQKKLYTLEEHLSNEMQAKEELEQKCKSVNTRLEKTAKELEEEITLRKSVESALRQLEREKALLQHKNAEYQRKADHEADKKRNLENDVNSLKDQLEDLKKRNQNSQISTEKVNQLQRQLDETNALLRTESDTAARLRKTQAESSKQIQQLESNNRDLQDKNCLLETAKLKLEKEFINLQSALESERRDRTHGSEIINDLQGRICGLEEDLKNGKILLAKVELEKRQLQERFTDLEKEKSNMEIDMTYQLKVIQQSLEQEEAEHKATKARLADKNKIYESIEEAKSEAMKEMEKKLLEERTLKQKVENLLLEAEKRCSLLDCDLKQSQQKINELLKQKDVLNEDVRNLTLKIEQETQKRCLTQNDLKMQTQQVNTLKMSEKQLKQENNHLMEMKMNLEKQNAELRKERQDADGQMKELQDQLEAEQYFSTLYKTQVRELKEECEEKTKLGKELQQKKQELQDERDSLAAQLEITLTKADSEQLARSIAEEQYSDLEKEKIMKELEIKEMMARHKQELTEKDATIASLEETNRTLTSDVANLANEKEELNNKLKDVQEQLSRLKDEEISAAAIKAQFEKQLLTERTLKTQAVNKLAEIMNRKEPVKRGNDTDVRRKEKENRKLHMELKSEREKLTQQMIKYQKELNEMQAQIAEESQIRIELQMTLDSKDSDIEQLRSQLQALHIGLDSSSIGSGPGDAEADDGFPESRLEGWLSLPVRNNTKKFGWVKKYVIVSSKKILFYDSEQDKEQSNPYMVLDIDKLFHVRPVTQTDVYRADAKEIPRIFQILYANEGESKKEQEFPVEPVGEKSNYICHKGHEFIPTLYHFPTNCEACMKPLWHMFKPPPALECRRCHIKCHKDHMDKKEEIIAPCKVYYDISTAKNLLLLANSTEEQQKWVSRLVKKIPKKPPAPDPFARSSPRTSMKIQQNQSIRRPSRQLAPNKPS

Limk1 [3] = molecular target: T1, Limk1 (Homo sapiens, UniProt P53667); assay: Limk1 biochemical assay (Reaction Biology, 10-dose IC50); parameters: His; purchased Reaction Biology Corporation; host or cells: insect cells
Target sequence in this assay (P53667 285-638): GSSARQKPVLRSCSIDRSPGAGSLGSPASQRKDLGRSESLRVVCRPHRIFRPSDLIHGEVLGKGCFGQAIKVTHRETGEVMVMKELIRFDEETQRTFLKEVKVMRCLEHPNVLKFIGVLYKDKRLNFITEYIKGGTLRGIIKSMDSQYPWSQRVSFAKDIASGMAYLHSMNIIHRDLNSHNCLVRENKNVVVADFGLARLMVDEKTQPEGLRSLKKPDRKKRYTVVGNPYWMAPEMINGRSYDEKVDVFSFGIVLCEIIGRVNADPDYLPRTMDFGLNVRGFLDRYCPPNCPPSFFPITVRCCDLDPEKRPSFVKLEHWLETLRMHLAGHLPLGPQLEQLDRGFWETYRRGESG

PC-3 cells [4] = assay: In vitro invasion assay in PC-3 cells; type: cell-based; details: Homo sapiens, 48 hours, compared to the control
Method: Transwell chambers coated with GFR Matrigel (BD Biosciences) were used for measurement of cell invasion. The matrigel was solidified at 37° C. in a humidified incubator the day before the assay. PC3 cells (1×10^3 cells per well) were grown in serum-free RPMI1640 media in the upper side of the insert. The lower well was filled with RPMI 1640 supplemented with 10% FBS with a Limk inhibitor (1 μM). PC3 cells were incubated at 37° C. in a humidified atmosphere containing 5% CO2 for 48 h. Then transwell membrane was rinsed three times with PBS, and the cells were fixed in 2.5% EM grade glutaraldehyde for 15 min at room temperature (RT) with no shaking. After removing glutaraldehyde by aspirating, the cells were permeabilized with 0.5% Triton X-100 in PBS for 3 min at RT, and they were rinsed three times with PBS. Then, the cells were stained by Gill's hematoxylin No. 1 for 15 min at RT, and they were washed by distilled water for three times. To remove any residual stain, the cells were washed by acid alcohol for 3 minutes and then rinsed by distilled water twice. The cells were exposed with 0.04% NH4OH until a blue color is observed on the membrane and then rinsed by distilled water twice. The membranes were dried overnight, and the stained cells were visualized under Leica DMI3000B microscope.

P450 1A2 = molecular target: T2, P450 1A2 (Homo sapiens, UniProt P05177)
T2 sequence (P05177 1-516): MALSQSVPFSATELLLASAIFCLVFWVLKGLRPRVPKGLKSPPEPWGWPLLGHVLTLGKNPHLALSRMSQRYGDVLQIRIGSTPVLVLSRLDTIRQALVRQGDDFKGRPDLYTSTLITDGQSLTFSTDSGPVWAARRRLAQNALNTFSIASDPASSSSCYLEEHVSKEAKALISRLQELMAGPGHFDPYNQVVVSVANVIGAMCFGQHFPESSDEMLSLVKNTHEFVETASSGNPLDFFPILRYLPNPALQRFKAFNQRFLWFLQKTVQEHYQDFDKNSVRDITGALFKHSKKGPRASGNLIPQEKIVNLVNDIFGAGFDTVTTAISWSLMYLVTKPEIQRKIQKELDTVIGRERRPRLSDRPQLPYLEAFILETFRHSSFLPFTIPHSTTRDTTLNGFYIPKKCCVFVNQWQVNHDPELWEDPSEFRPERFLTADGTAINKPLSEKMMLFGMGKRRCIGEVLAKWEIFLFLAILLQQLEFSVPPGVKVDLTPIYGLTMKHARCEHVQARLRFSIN

PC-3 cells [5] = assay: In vitro migration (wound closure) assay in PC-3 cells; type: cell-based; details: Homo sapiens, PC-3, 24 h, read-out: inhibition of migration of PC-3 cells
Method: PC3 cells were cultured to confluence at >90% in 6 well culture dishes in 10% FBS RPMI1640 media the day before the assay. Lines were drawn with a marker on the bottom of the dishes. Using a sterile 1 mL pipet tip, the dishes were scratched three separate wounds through the cells moving perpendicular to the line drawn in the step above. The cells were rinsed with PBS twice very gently and added the RPMI1640 media, and the dishes were taken pictures using phase contrast under Leica DMI3000B microscope.

[6] = Plasma pharmacokinetics studies on rats; details: for F (%) (po): po dosing 2 mg/kg; for Cmax: read-out: Cmax (iv)
Method: In vivo pharmacokinetics (PK) studies were conducted for selected compounds during the whole optimization at various stages in order to identify structural elements that are favorable for in vivo applications, and/or to evaluate the feasibility of optimized Limk inhibitors for animal studies.

P450 2C9 = P450 2C9 (Homo sapiens, UniProt P11712); assay: P450 inhibition at 10 μM; type: in vitro ADME
P450 2C9, sequence (P11712 whole entry): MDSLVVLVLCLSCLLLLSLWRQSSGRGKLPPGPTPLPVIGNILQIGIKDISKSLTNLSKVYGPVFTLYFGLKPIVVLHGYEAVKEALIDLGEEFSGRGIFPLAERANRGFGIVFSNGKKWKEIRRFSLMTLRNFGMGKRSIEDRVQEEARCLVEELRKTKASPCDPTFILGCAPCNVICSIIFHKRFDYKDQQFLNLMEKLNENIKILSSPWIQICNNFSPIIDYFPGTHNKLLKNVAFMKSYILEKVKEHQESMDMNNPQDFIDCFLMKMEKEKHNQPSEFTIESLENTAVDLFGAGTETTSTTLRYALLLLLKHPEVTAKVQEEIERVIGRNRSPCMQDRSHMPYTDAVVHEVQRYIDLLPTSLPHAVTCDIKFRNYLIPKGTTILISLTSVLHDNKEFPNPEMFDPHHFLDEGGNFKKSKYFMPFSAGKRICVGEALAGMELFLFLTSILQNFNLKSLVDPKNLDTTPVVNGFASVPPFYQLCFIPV

[7] = Microsomal stability, human liver microsomes; type: in vitro ADME
JNK3 = JNK3 (Homo sapiens, UniProt P53779); assay: JNK3 biochemical counter-screen; details: Table 6; read-out: Biochemical Inhibition IC50 (nM) JNK3
JNK3, sequence (P53779 whole entry, species assumed): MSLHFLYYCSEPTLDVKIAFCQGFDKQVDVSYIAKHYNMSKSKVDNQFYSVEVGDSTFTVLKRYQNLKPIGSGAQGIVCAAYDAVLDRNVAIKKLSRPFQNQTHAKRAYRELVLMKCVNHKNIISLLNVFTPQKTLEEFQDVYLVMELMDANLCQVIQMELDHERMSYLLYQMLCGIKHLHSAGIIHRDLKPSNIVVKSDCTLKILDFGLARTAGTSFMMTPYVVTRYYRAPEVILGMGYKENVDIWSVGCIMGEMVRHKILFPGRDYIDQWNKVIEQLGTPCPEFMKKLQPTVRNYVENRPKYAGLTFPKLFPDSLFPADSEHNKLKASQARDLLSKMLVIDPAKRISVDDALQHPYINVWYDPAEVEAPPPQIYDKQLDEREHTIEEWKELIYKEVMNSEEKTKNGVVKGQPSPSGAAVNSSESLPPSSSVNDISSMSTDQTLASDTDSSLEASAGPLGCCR

[8] = system: p-cofilin in CEM-SS T cells; assay: Cofilin phosphorylation cell assay in CEM-SS T cell lines; type: cell-based; details: Homo sapiens
Method: Cells were lysed in NuPAGE LDS Sample Buffer (Invitrogen) followed by sonication. Samples were heated at 90° C. for 10 minutes, separated by SDS-PAGE, and then transferred onto nitrocellulose membranes (Invitrogen). The membranes were washed in TBST for 3 minutes and then blocked for 30 minutes at room temperature with Starting Block blocking buffer (Pierce). […] The blots were washed three times for 15 minutes and scanned with Odyssey Infrared Imager (Li-cor Biosciences). The same blots were also stripped and reprobed with antibodies against GAPDH (Abcam) as a loading control.

[9] = IOP lowering on rat eyes, topical dosing; type: in vivo, Brown Norway rats
Limk1 [10] = molecular target: T1, Limk1; details: reported by a Japanese group; read-out: Limk1 inhibition IC50; cited from earlier work
[11] = Table 4, means of ≥2 experiments, read-out: IC50 (nM) ROCK-II
[12] = Table 4, means of ≥2 experiments, read-out: IC50 (nM) Limk1
[13] = A7R5, A7r5 cells, read-out: Cofilin Phosphorylation In A7r5 Cells (IC50)
[14] = Table 5, means of ≥2 experiments, read-out: Biochemical IC50 (nM) ROCK-II
[15] = Table 5, means of ≥2 experiments, read-out: Biochemical IC50 (nM) Limk1

P450 3A4, sequence (P08684 whole entry): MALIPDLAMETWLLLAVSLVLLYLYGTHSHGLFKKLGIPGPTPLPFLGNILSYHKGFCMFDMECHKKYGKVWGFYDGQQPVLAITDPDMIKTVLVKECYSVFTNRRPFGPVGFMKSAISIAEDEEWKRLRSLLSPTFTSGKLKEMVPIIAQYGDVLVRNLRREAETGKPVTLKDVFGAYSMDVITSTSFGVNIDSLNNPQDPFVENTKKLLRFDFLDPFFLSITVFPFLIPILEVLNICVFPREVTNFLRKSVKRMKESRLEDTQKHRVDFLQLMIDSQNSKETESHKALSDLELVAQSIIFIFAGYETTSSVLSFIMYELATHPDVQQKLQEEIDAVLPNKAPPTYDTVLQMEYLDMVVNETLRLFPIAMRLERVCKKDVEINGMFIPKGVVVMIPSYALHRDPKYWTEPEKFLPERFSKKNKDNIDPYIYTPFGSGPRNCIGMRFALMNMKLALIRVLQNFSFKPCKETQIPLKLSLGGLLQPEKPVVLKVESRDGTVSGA
P450 2D6, sequence (P10635 whole entry): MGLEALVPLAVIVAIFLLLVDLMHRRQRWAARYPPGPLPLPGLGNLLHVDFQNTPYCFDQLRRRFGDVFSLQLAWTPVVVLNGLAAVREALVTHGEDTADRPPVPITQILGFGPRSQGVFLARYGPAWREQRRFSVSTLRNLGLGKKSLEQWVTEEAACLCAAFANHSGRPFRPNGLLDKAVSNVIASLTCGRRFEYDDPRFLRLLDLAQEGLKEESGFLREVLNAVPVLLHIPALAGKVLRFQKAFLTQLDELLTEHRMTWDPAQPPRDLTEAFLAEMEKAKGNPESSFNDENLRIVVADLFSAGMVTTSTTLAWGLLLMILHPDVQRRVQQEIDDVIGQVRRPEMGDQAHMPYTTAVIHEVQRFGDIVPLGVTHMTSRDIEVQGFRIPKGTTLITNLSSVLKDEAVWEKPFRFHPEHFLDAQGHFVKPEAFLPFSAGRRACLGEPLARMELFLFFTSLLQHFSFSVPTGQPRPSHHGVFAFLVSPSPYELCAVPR

| SMILES | P450 % inh. at 10 μM 3A4 (P450 3A4) [%] | P450 % inh. at 10 μM 2D6 (P450 2D6) [%] | IC50 (ROCK-II; [11]) [nM] | AUC (iv) ([6]; rats, iv dosing 1 mg/kg) [µM·h] | Cl (iv) ([6]; rats, iv dosing 1 mg/kg) [mL/min/kg] | Cmax ([6]; rats, iv dosing 1 mg/kg) [nM] | P450 % inh. at 10 μM 2C9 (P450 2C9) [%] | Microsomal Stability t1/2 (min) Rat ([1]; rat liver microsomes) [min] | IC50 [2, 13] [nM] | T1/2 (iv) ([6]; rats, iv dosing 1 mg/kg) [h] | inhibition at 1 µM [8] [%] | IC50 (ROCK-II; read-out: ROCK-II IC50) [nM] | Yd (iv) ([6]; rats, iv dosing 1 mg/kg) [L/kg] | other results |
| --- | --- | --- | --- | --- | --- | --- | --- | --- | --- | --- | --- | --- | --- | --- |
| Cc1c[nH]c2ncnc(-c3ccc(NC(=O)N(CCO)c4ccccc4Cl)cc3)c12 [Compound 18f, 1-(2-Chlorophenyl)-1-(2-hydroxyethyl)-3-(4-(5-methyl-7H-pyrrolo[2,3-d]pyrimidin-4-yl)phenyl)urea] | 37 | 1 | 3340 | 5.1 | 7.7 | 4700 | 39 | – | – | – | – | – | – | Microsomal Stability t1/2 (min) Rat [1]: 38 min; IC50 ([2]; A7R5, read-out: Cofilin Phosphorylation In A7r5 Cells (IC50, nM)): 420 nM; IC50 (ROCK-I): 4390 nM; IC50 (Limk1 [3]; [12]): 58 nM; inhibition at 1 µM (PC-3 cells [4]): 83%; P450 % inh. at 10 μM 1A2 (P450 1A2): −4/39/1/37%; inhibition at 0.1 µM (PC-3 cells [5]): 13%; inhibition at 1 µM (PC-3 cells [5]): 76.1%; inhibition at 10 µM (PC-3 cells [5]): 81%; T1/2 (iv) ([6]; rat, in vivo, iv, 1 mg/kg): 1.5 h; Yd (iv) ([6]; rat, in vivo, iv, 1 mg/kg): 0.7 L/kg; F (%) (po) ([6]; rats): 21% |
| Cc1c[nH]c2ncnc(-c3ccc(NC(=O)N(CCO)c4ccc(Cl)cc4)cc3)c12 [Compound 18h, 1-(4-Chlorophenyl)-1-(2-hydroxyethyl)-3-(4-(5-methyl-7H-pyrrolo[2,3-d]pyrimidin-4-yl)phenyl)urea] | 27 | – | 4360 | 13.2 | 3.0 | 10500 | 23 | 73 | ~100 | 2.6 | – | – | – | IC50 (ROCK-I): 5920 nM; Microsomal Stability t1/2 (min) Human [7]: >120 min; IC50 (JNK3): > 10000 nM |
| Cc1c[nH]c2ncnc(-c3ccc(NC(=O)N(CCN)c4ccc(Cl)cc4)cc3)c12 [Compound 18p, 1-(2-Aminoethyl)-1-(4-chlorophenyl)-3-(4-(5-methyl-7H-pyrrolo[2,3-d]pyrimidin-4-yl)phenyl)urea] | – | – | 460 | 0.7 | 55.9 | 1100 | – | – | – | 5.1 | > 50 | – | – | – |
| Cc1c[nH]c2ncnc(-c3ccc(NC(=O)N(CCN(C)C)c4ccc(Cl)cc4)cc3)c12 [Compound 18r, 1-(4-Chlorophenyl)-1-(2-(dimethylamino)ethyl)-3-(4-(5-methyl-7H-pyrrolo[2,3-d]pyrimidin-4-yl)phenyl)urea] | – | – | > 10000 | 0.6 | 42.2 | 200 | – | – | – | 6.1 | > 50 | > 10000 | 17.1 | IC50 (Limk1 [3]; [12]): 20 nM; IC50 (Limk1 [3]; read-out: Limk1 IC50): ~20 nM; F (%) (po) ([6]; rats): 0% |
| Cc1[nH]c2ncnc(-c3ccc(NC(=O)N(CCN(C)C)c4ccc(Cl)cc4)c(F)c3)c2c1C [Compound 18w, 1-(4-Chlorophenyl)-3-(4-(5,6-dimethyl-7H-pyrrolo[2,3-d]pyrimidin-4-yl)-2-fluorophenyl)-1-(2-(dimethylamino)ethyl)urea] | −9 | 20 | – | 3.0 | 14.2 | 2400 | −23 | 23 | 320 | 3.3 | – | > 20000 | 1.5 | IC50 (ROCK-II; [14]): > 20000 nM; IC50 (Limk1 [3]; [15]): 19 nM; P450 % inh. at 10 μM 1A2 (P450 1A2; 10 μM): 15%; Microsomal Stability t1/2 (min) Human [7]: 19 min; maximal IOP decrease of the treated eye ([9]; 20 ul of […], from 1 to 4 hours, baseline 28 mmHg): ~6 mmHg; IOP drop on rat eyes ([9]; topical, dose of 50 μg): > 20% |
| COCCN(C(=O)Nc1ccc(-c2ncnc3[nH]c(C)c(C)c23)cc1F)c1ccc(Cl)cc1 [Compound 18x, 1-(4-Chlorophenyl)-3-(4-(5,6-dimethyl-7H-pyrrolo[2,3-d]pyrimidin-4-yl)-2-fluorophenyl)-1-(2-methoxyethyl)urea] | 52 | 15 | – | 5.1 | 6.9 | 3500 | 50 | 13 | 250 | 3.4 | > 50 | > 20000 | 1.2 | IC50 (ROCK-II; [14]): > 20000 nM; IC50 (Limk1 [3]; [15]): 8 nM; P450 % inh. at 10 μM 1A2 (P450 1A2; 10 μM): 23%; IC50 (JNK3): > 10000 nM |
| COc1c(C=O)c(O)cc2c1C(=O)c1ccccc1C2=O [Damnacanthal] | – | – | – | – | – | – | – | – | – | – | – | – | – | IC50 (Limk1 [10]): ~800 nM |
